Test results: ChEMBL document CHEMBL4177535 (Bioorg Med Chem Lett, 2017)

Columns and labels:
[1] = test system: Human immunodeficiency virus 1; assay: Antiviral activity against R5 tropic HIV-1 BAL infected in human PBL assessed as reduction in Agp24 level at 100 uM measured after 3 days by ELISA relative to control; format: functional; design: scale not given: the % may be the effect or the level left
[2] = target: Rap guanine nucleotide exchange factor 3 (Homo sapiens, UniProt O95398); assay: Activation of EPAC1 DEP1 deletion mutant (unknown origin) expressed in mouse NIH-3T3-A14 cells assessed as increase in Rap1b- fluorescent nucleotide methylontraniloyl-GDP nucleotide exchange by fluorescence assay; format: cell-based
Chain of Rap guanine nucleotide exchange factor 3 (O95398 whole entry, looked up): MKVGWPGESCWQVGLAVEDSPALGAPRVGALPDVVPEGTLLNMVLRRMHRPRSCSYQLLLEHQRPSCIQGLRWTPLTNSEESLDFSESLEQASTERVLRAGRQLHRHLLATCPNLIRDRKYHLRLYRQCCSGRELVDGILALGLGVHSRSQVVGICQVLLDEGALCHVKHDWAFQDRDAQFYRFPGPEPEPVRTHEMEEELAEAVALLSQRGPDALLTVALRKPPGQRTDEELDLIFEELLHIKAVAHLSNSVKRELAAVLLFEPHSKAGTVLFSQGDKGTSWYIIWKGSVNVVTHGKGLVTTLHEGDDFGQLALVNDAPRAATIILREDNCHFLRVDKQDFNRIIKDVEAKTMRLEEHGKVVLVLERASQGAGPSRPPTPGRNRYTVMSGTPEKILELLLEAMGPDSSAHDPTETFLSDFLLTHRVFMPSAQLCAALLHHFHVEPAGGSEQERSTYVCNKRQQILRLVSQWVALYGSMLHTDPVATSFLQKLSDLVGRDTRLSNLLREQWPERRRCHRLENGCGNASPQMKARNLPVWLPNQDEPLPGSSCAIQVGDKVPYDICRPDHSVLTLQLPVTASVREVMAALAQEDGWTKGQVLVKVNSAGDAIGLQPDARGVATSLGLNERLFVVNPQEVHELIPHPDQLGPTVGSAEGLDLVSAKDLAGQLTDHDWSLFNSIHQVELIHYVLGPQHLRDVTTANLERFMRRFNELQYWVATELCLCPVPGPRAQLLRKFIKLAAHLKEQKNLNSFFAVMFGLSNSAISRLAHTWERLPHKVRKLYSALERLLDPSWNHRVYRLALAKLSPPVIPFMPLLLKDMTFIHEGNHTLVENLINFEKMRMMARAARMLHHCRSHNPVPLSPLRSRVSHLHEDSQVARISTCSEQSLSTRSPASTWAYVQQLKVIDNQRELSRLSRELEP

EC50 [2]: 2.2 µM
Structure (SMILES): CO[C@@H]1[C@@H]2OP(=O)(O)OC[C@H]2O[C@H]1n1c(Sc2ccc(Cl)cc2)nc2c(N)ncnc21
Activity [1]: 40%
